Measured values: paper PMC5640845, “Screening of FDA-Approved Drugs for Inhibitors of Japanese Encephalitis Virus Infection” (Journal of Virology, 2017)
Structures can show the parent of a compound that is named as a salt.

Assays:
JEV = assay: IFA of JEV infection with calcium inhibitors on Vero and Huh-7 cells; assay type: cell-based, Japanese encephalitis virus
[1] = Cytotoxicity (CC50) of compounds from the reconfirmation screen; assay type: cell-based; settings: African green monkey, Vero cells; 50% cytotoxic concentration
JEV RVP [2] = assay: microbe, parasite or virus in culture; settings: Japanese encephalitis virus, Vero; for IC50: 24 h; for inhibition at 10 µM: read-out: level of inhibition in the primary screen
JEV RVP [3] = assay: in vitro; settings: African green monkey, SI (selective index, CC50/IC50), Vero cells
ZIKV = ZIKV infection of Vero cells (viral titer, RNA, IFA); assay type: cell-based, Zika virus; settings: 48 h; for ZIKV plaque formation: 10 μM, Vero cells
JEV strain AT31 [4] = assay: qRT-PCR quantification of JEV RNA in cell lysates; settings: high-, middle- and low-dose groups, 24 h
[5] = test system: JEV NS4B Q130 mutant viruses; assay type: cell-based, Japanese encephalitis virus
JEV strain AT31 [6] = settings: mouse, in vivo
YFV = assay type: cell-based, yellow fever virus
DENV-2 replicon = DENV-2 replicon luciferase assay in BHK-21 cells; assay type: cell-based, dengue virus type 2; settings: 72 h
Description: FIG 4 Broad-spectrum antiviral activity of the hit drugs against flaviviruses. […] The hit drugs were added to the cells at 1 h preinfection and were present throughout the experiment. At 48 h postinfection, the cell culture supernatants were subjected to a viral titer assay (top left), while cell lysates were assessed for viral RNA quantification (top right), and duplicate cells were analyzed by IFA for E protein (green) expression (bottom). Nuclei (blue) were stained with DAPI (4′,6-diamidino-2-phenylindole). (B and C) BHK-21 cells transfected with the WNV or DENV-2 replicon were treated with the hit drugs at the indicated concentrations, and luciferase activities were determined 48 h or 72 h later.
To ensure the effectiveness of the hit drugs in flavivirus replication, BHK-21 cells transfected with the JEV, WNV, or DENV-2 replicon were incubated with each drug at the concentrations indicated above, and the luciferase activities were determined 24 h, 48 h, or 72 h later, respectively.

JEV RVP [7] = settings: Vero cells

Structure (SMILES) | CC50 [1] [µM] | IC50 (JEV RVP [2]) [µM] | selectivity ratio (JEV RVP [3]) | also measured
CC(=O)OCOC(=O)CN(CC(=O)OCOC(C)=O)c1ccccc1OCCOc1ccccc1N(CC(=O)OCOC(C)=O)CC(=O)OCOC(C)=O [BAPTA-AM, 1,2-bis-(o-aminophenoxy)-ethane-N,N,N′,N′-tetraacetic acid, tetraacetoxymethyl ester] |  |  |  | inhibition of JEV infection (IFA, prM-positive cells vs DMSO control) (JEV): suppress JEV infection
COC(=O)C1=C(C)NC(C)=C(C(=O)OC2CCCN(Cc3ccccc3)C2)C1c1cccc([N+](=O)[O-])c1 (stereo not drawn) [Benidipine hydrochloride] | 55.9 | 3.7 | 15 | 
Clc1ccc(CCC(Cn2ccnc2)Sc2c(Cl)cccc2Cl)cc1 (stereo not drawn) [Butoconazole Nitrate] | 15.7 | 4 | 4 | 
COCCOC(=O)C1=C(C)NC(C)=C(C(=O)OC/C=C/c2ccccc2)C1c1cccc([N+](=O)[O-])c1 (stereo not drawn) [Cilnidipine] | > 100 | 3.5 | > 28.6 | ZIKV plaque formation (ZIKV): no plaque formation
CCOC(=O)C1=C(C)NC(C)=C(C(=O)OCC)C1c1ccccc1/C=C/C(=O)OC(C)(C)C [Lacidipine] | 14.1 | 3.5 | 4 | 
COC(=O)C1=C(C)NC(C)=C(C(=O)OCCN2CCN(C(c3ccccc3)c3ccccc3)CC2)C1c1cccc([N+](=O)[O-])c1 (stereo not drawn) [Manidipine] | > 100 | 1.6 | > 62.5 | attenuation of JEV RNA levels (inhibitory effect vs control) (JEV strain AT31 [4]): at least 80%; decrease of viral titer, Q130A mutant JEV [5]: higher than 2 log-unit; decrease of viral titer, Q130K mutant JEV [5]: less than 2 log units; decrease of viral titer, Q130R mutant JEV [5]: less than 2 log units; reduction of viral yields, WT JEV [5]: approximately 4 log units; resistance of Q130E mutant JEV to the drug [5]: no resistance; effect on peripheral JEV infection (serum and spleen viral loads) (JEV strain AT31 [6]): little effect; histopathological changes in brain (meningitis, perivascular cuffing, vacuolar degeneration, glial nodules) (JEV strain AT31 [6]): remarkably alleviated; abnormal behavior of treated mice (JEV strain AT31 [6]; ip, 25 mg/kg): little abnormal behavior; animals survived (JEV strain AT31 [6]; ip, 25 mg/kg): 12 out of 15; mortality rate (JEV strain AT31 [6]; ip, 25 mg/kg): 20%; ZIKV plaque formation (ZIKV): no plaque formation; inhibition at 5 µM (ZIKV; Zika virus, Vero, read-out: inhibition of ZIKV viral replication, translation, and viral yields): 95%; sensitivity of YFV to the drug (YFV): resistance
Clc1ccc(C(c2ccccc2Cl)C(Cl)Cl)cc1 (stereo not drawn) [Mitotane] | 25.9 | 6.6 | 3.9 | 
Cc1c(O)cccc1C(=O)N[C@@H](CSc1ccccc1)[C@H](O)CN1C[C@H]2CCCC[C@H]2C[C@H]1C(=O)NC(C)(C)C [Nelfinavir Mesylate] | 27.1 | 1.6 | 16.8 | level of DENV-2 replication (replicon luciferase) (DENV-2 replicon): no effect at the concentrations tested
CC[C@@H]1/C=C(\C)C[C@H](C)C[C@H](OC)[C@H]2O[C@@](O)(C(=O)C(=O)N3CCCC[C@H]3C(=O)O[C@H](/C(C)=C/[C@@H]3CC[C@H](Cl)[C@H](OC)C3)[C@H](C)[C@@H](O)CC1=O)[C@H](C)C[C@@H]2OC [Pimecrolimus] | > 100 | 3.1 | > 32.3 | SI (selective index, CC50/IC50) (JEV RVP [7]): > 32
COc1ccc(CCN(C)CCCC(C#N)(c2ccc(OC)c(OC)c2)C(C)C)cc1OC (stereo not drawn) [Verapamil] |  |  |  | inhibition of JEV infection (IFA, prM-positive cells vs DMSO control) (JEV): dose-dependent inhibition
CCOC(=O)C1=C(C)NC(C)=C(C(=O)OC)C1c1cccc(Cl)c1Cl (stereo not drawn) [felodipine] |  |  |  | inhibition at 10 µM (JEV RVP [2]): 72%
Fc1ccc(C(c2ccc(F)cc2)N2CCN(C/C=C/c3ccccc3)CC2)cc1 [flunarizine dihydrochloride] |  |  |  | inhibition at 10 µM (JEV RVP [2]): > 90%
COc1ccc(CN2CCN(C(c3ccc(F)cc3)c3ccc(F)cc3)CC2)c(OC)c1OC.Cl.Cl [lomerizine hydrochloride] |  |  |  | level of inhibition in the primary screen (JEV RVP [7]; 10 μM compound): > 90%
COC(=O)C1=C(C)NC(C)=C(C(=O)OCCN(C)Cc2ccccc2)C1c1cccc([N+](=O)[O-])c1 (stereo not drawn) [nicardipine hydrochloride] |  |  |  | inhibition at 10 µM (JEV RVP [2]): 66%
COC(=O)C1=C(C)NC(C)=C(C(=O)OCC(C)C)C1c1ccccc1[N+](=O)[O-] (stereo not drawn) [nisoldipine] |  |  |  | inhibition at 10 µM (JEV RVP [2]): 75%
